Measurements published in US12157746B2, “Tetrahydro-1H-pyrazino[2,1-a]isoindolylquinoline compounds for the treatment of autoimmune disease” (F. HOFFMANN-LA ROCHE AG, priority 2018, dated 2024).

Key:
hERG K+ channel = target: T1, hERG K+ channel (Homo sapiens, UniProt Q12809); assay: hERG channel inhibition assay; type: cell-based; settings: patch-clamp (voltage-clamp, whole-cell); for IC50: CHO cells expressing hERG; for IC20: human, CHO cells stably expressing hERG
T1 construct: expressed in transfected cells; host or cells: CHO (Chinese hamster ovary) cells, CHOhERG
T1 sequence (Q12809 whole entry): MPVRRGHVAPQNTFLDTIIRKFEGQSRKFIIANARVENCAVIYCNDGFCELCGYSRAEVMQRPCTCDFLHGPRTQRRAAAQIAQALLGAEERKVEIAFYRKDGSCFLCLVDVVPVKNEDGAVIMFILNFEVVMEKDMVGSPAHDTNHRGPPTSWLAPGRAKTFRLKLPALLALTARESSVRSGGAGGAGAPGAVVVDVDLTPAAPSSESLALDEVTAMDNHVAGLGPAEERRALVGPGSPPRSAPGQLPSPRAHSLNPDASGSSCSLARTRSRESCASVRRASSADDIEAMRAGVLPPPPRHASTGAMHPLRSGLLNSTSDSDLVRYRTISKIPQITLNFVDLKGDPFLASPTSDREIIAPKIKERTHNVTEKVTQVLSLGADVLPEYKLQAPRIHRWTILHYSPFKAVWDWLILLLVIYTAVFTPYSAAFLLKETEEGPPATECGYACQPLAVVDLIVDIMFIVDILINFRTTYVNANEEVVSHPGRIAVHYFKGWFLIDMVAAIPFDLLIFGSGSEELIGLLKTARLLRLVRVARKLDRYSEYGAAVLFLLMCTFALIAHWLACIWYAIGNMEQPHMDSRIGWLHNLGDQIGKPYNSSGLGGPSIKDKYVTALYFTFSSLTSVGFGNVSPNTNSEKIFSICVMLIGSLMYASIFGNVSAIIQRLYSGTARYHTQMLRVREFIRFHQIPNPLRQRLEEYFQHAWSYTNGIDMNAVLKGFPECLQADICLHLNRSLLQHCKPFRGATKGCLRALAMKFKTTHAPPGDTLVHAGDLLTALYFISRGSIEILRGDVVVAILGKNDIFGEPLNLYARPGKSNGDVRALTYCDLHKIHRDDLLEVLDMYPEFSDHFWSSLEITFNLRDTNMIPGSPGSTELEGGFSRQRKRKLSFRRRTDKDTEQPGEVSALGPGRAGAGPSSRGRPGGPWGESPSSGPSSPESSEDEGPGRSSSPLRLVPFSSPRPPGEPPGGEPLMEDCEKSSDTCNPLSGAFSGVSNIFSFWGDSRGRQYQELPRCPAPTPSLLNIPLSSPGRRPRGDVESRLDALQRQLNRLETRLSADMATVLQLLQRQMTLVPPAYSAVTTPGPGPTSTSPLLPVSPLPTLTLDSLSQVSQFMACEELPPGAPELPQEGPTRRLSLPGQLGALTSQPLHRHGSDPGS
Procedure: hERG Channel Inhibition Assay
The hERG K^+ channels were cloned in humans and stably expressed in a CHO (Chinese hamster ovary) cell line. CHOhERG cells were used for patch-clamp (voltage-clamp, whole-cell) experiments. Cells were stimulated by a voltage pattern to activate hERG channels and conduct IKhERG currents (rapid delayed outward rectifier potassium current of the hERG channel). After the cells were stabilized for a few minutes, the amplitude and kinetics of IKhERG were recorded at a stimulation frequency of 0.1 Hz (6 bpm). Thereafter, the test compound was added to the preparation at increasing concentrations. For each concentration, an attempt was made to reach a steady-state effect, usually, this was achieved within 3-10 min at which time the next highest concentration was applied. The amplitude and kinetics of IKhERG are recorded in each concentration of the drug which were compared to the control values (taken as 100%). (references: Redfem W S, Carlsson L, Davis A S, Lynch W G, MacKenzie I, Palethorpe S, Siegl P K, Strang I, Sullivan A T, Wallis R, Camm A J, Hammond T G. 2003; Relationships between preclinical cardiac electrophysiology, clinical QT interval prolongation and torsade de pointes for a broad range of drugs: evidence for a provisional safety margin in drug development. Cardiovasc. Res. 58:32-45, Sanguinetti M C, Tristani-Firouzi M. 2006; hERG potassium channels and cardiac arrhythmia. Nature 440:463-469, Webster R, Leishman D, Walker D. 2002; Towards a drug concentration effect relationship for QT prolongation and torsades de pointes. Curr. Opin. Drug Discov. Devel. 5:116-26).

human TLR8 = target: T2, human TLR8 (Homo sapiens, UniProt Q9NR97); assay: HEK293-Blue-hTLR-8 cells assay; type: cell-based; settings: HEK293-Blue-hTLR8 cells, R848 stimulation, 20 hrs, SEAP reporter; read-out: HEK/hTLR8 IC50
T2 sequence (Q9NR97 27-1041): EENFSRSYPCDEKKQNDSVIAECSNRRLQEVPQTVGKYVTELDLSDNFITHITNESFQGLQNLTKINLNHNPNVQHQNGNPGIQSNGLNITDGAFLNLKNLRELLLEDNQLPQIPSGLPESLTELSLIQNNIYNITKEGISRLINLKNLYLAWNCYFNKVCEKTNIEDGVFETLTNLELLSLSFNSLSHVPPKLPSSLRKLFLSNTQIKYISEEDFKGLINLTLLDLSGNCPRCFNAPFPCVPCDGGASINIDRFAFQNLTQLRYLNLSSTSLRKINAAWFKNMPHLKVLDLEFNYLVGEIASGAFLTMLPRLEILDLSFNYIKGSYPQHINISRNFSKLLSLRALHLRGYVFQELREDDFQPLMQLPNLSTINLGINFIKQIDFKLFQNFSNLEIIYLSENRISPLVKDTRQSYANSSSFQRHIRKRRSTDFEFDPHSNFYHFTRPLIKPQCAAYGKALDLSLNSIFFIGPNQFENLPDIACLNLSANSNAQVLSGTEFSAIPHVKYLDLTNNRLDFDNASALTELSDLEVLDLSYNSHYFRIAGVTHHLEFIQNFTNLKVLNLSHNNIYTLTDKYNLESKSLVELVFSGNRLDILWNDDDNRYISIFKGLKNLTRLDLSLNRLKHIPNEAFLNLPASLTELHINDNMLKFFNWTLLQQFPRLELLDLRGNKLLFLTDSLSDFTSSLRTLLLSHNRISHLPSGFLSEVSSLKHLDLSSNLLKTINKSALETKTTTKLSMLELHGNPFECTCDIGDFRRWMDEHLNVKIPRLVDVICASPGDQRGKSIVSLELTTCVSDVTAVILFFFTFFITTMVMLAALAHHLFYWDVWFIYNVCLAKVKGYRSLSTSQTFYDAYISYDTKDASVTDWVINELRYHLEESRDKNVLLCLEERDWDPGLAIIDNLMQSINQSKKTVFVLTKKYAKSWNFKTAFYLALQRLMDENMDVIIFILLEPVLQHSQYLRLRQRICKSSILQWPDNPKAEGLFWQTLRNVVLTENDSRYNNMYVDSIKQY
Outline: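 Antagonism read out in HEK293-Blue-hTLR8 cells carrying an NF-κB/AP-1-driven SEAP reporter, stimulated with R848 (10 μL of 60 uM stock added) alongside serially diluted compound (1% DMSO), 20 h at 37° C. Supernatant SEAP measured with QUANTI-Blue after 2 h at 37° C, absorbance at 620-655 nm.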

`C[C@@H]1CN(c2ccc(C#N)c3ncccc23)C[C@@H]2c3ccc(N4CCN[C@H](CO)C4)cc3CN12` [Example 12, 5-[(4R,10bS)-8-[(3S)-3-(hydroxymethyl)piperazin-1-yl]-4-methyl-3,4,6,10b-tetrahydro-1H-pyrazino[2,1-a]isoindol-2-yl]quinoline-8-carbonitrile] was tested, and the IC50 (hERG K+ channel) was over 20 µM, the IC20 (hERG K+ channel) was over 10 µM and the IC50 (human TLR8) was under 0.0032 µM.
With `C[C@@H]1CN(c2ccc(C#N)c3ncccc23)C[C@@H]2c3ccc(N4CC5(CNC5)C4)cc3CN12` [Example 36, 5-[(4R,10bS)-8-(2,6-diazaspiro[3.3]heptan-2-yl)-4-methyl-3,4,6,10b-tetrahydro-1H-pyrazino[2,1-a]isoindol-2-yl]quinoline-8-carbonitrile] the IC50 (hERG K+ channel) was over 20 µM, the IC20 (hERG K+ channel) was over 10 µM and the IC50 (human TLR8) was under 0.0032 µM.
`C[C@@H]1CN(c2ccc(C#N)c3ncccc23)C[C@@H]2c3ccc(N4CCOCC(N)C4)cc3CN12` (stereo partly drawn) [Example 54, 5-[(4R,10bS)-8-(6-amino-1,4-oxazepan-4-yl)-4-methyl-3,4,6,10b-tetrahydro-1H-pyrazino[2,1-a]isoindol-2-yl]quinoline-8-carbonitrile] was tested, and the IC50 (hERG K+ channel) was over 20 µM, the IC20 (hERG K+ channel) was over 10 µM and the IC50 (human TLR8) was under 0.0032 µM.
In the case of `C[C@@H]1CN(c2ccc(C#N)c3ncccc23)C[C@@H]2c3ccc(N4CC(N)C4)cc3CN12` [Example 22, 5-[(4R,10bS)-8-(3-aminoazetidin-1-yl)-4-methyl-3,4,6,10b-tetrahydro-1H-pyrazino[2,1-a]isoindol-2-yl]quinoline-8-carbonitrile], the IC50 (hERG K+ channel) is reported as over 20 µM, the IC20 (hERG K+ channel) is reported as 5 µM and the IC50 (human TLR8) is reported as under 0.0032 µM.
Work on `C[C@@H]1CN(c2ccc(C#N)c3ncccc23)C[C@@H]2c3ccc(N4C[C@@H](N)[C@](C)(O)C4)cc3CN12` [Example 45A, 5-[(4R,10bS)-8-[(3R,4R)-4-amino-3-hydroxy-3-methyl-pyrrolidin-1-yl]-4-methyl-3,4,6,10b-tetrahydro-1H-pyrazino[2,1-a]isoindol-2-yl]quinoline-8-carbonitrile] yielded an IC50 (hERG K+ channel) of over 20 µM, an IC20 (hERG K+ channel) of 7.4 µM and an IC50 (human TLR8) of 0.0015 µM.
For `C[C@@H]1CN(c2ccc(C#N)c3ncccc23)C[C@@H]2c3ccc(N4CC5(CCN5)C4)cc3CN12` [Example 37, 5-[(4R,10bS)-8-(1,6-diazaspiro[3.3]heptan-6-yl)-4-methyl-3,4,6,10b-tetrahydro-1H-pyrazino[2,1-a]isoindol-2-yl]quinoline-8-carbonitrile], the IC50 (hERG K+ channel) was over 20 µM, the IC20 (hERG K+ channel) was 8.6 µM and the IC50 (human TLR8) was under 0.0032 µM.
With `C[C@@H]1CN(c2ccc(C#N)c3ncccc23)C[C@@H]2c3ccc(N4C[C@@H](N)[C@H](O)C4)cc3CN12` (single isomer, unassigned) [Example 40B] the IC50 (hERG K+ channel) was over 20 µM, the IC20 (hERG K+ channel) was over 10 µM and the IC50 (human TLR8) was 0.0009 µM.
`CN[C@H]1CN(c2ccc3c(c2)CN2[C@H](C)CN(c4ccc(C#N)c5ncccc45)C[C@H]32)C[C@@H]1O` [Example 42, 5-[(4R,10bS)-8-[(3S,4S)-3-hydroxy-4-(methylamino)pyrrolidin-1-yl]-4-methyl-3,4,6,10b-tetrahydro-1H-pyrazino[2,1-a]isoindol-2-yl]quinoline-8-carbonitrile] gave an IC50 (hERG K+ channel) of over 20 µM, an IC20 (hERG K+ channel) of 6.7 µM and an IC50 (human TLR8) of under 0.0032 µM.
`C[C@@H]1CN(c2ccc(C#N)c3ncccc23)C[C@@H]2c3ccc(NC4CNCCOC4)cc3CN12` (stereo partly drawn) [Example 56, 5-[(4R,10bS)-4-methyl-8-(1,4-oxazepan-6-ylamino)-3,4,6,10b-tetrahydro-1H-pyrazino[2,1-a]isoindol-2-yl]quinoline-8-carbonitrile] gave an IC50 (hERG K+ channel) of over 20 µM, an IC20 (hERG K+ channel) of over 10 µM and an IC50 (human TLR8) of under 0.0032 µM.
For `C[C@@H]1CN(c2ccc(C#N)c3ncccc23)C[C@@H]2c3ccc(N4CCNCC(O)C4)cc3CN12` (stereo partly drawn) [Example 15, 5-[(4R,10bS)-8-(6-hydroxy-1,4-diazepan-1-yl)-4-methyl-3,4,6,10b-tetrahydro-1H-pyrazino[2,1-a]isoindol-2-yl]quinoline-8-carbonitrile], the IC50 (hERG K+ channel) was over 20 µM, the IC20 (hERG K+ channel) was over 10 µM and the IC50 (human TLR8) was under 0.0032 µM.
`C[C@@H]1CN(c2ccc(C#N)c3ncccc23)C[C@@H]2c3ccc(N4CC(C)(N)C4)cc3CN12` [Example 39, 5-[(4R,10bS)-8-(3-amino-3-methyl-azetidin-1-yl)-4-methyl-3,4,6,10b-tetrahydro-1H-pyrazino[2,1-a]isoindol-2-yl]quinoline-8-carbonitrile] showed an IC50 (hERG K+ channel) of over 20 µM, an IC20 (hERG K+ channel) of over 10 µM and an IC50 (human TLR8) of under 0.0003 µM.
`COC12CNCC1CN(c1ccc3c(c1)CN1[C@H](C)CN(c4ccc(C#N)c5ncccc45)C[C@H]31)C2` (stereo partly drawn) [Example 41, 5-[(4R,10bS)-8-(3a-methoxy-1,2,3,4,6,6a-hexahydropyrrolo[3,4-c]pyrrol-5-yl)-4-methyl-3,4,6,10b-tetrahydro-1H-pyrazino[2,1-a]isoindol-2-yl]quinoline-8-carbonitrile] showed an IC50 (hERG K+ channel) of over 20 µM, an IC20 (hERG K+ channel) of over 10 µM and an IC50 (human TLR8) of under 0.0032 µM.
Molecule `CO[C@@H]1CN(c2ccc3c(c2)CN2[C@H](C)CN(c4ccc(C#N)n5nccc45)C[C@H]32)C[C@H]1N` [Example 94, 4-[(4R,10bS)-8-[(3R,4R)-3-amino-4-methoxy-pyrrolidin-1-yl]-4-methyl-3,4,6,10b-tetrahydro-1H-pyrazino[2,1-a]isoindol-2-yl]pyrazolo[1,5-a]pyridine-7-carbonitrile] has an IC50 (hERG K+ channel) of over 20 µM, an IC20 (hERG K+ channel) of over 10 µM and an IC50 (human TLR8) of 0.0056 µM.
In the case of `C[C@@H]1CN(c2ccc(C#N)c3ncccc23)C[C@@H]2c3ccc(N4C[C@H](N)[C@@](C)(O)C4)cc3CN12` [Example 45B, 5-[(4R,10bS)-8-[(3S,4S)-4-amino-3-hydroxy-3-methyl-pyrrolidin-1-yl]-4-methyl-3,4,6,10b-tetrahydro-1H-pyrazino[2,1-a]isoindol-2-yl]quinoline-8-carbonitrile], the IC50 (hERG K+ channel) is reported as over 20 µM, the IC20 (hERG K+ channel) is reported as over 10 µM and the IC50 (human TLR8) is reported as 0.0012 µM.
For `CO[C@H]1CN(c2ccc3c(c2)CN2[C@H](C)CN(c4ccc(C#N)c5ncccc45)C[C@H]32)C[C@@H]1N` (relative stereo) [Example 16, 5-[(4R,10bS)-8-[trans-3-amino-4-methoxy-pyrrolidin-1-yl]-4-methyl-3,4,6,10b-tetrahydro-1H-pyrazino[2,1-a]isoindol-2-yl]quinoline-8-carbonitrile], the IC50 (hERG K+ channel) was over 20 µM, the IC20 (hERG K+ channel) was over 10 µM and the IC50 (human TLR8) was under 0.0032 µM.
With `C[C@@H]1CN(c2ccc(C#N)c3ncccc23)C[C@@H]2c3ccc(N4CC5CNCC(C4)O5)cc3CN12` [Example 14, 5-[(4R,10bS)-4-methyl-8-(9-oxa-3,7-diazabicyclo[3.3.1]nonan-3-yl)-3,4,6,10b-tetrahydro-1H-pyrazino[2,1-a]isoindol-2-yl]quinoline-8-carbonitrile] the IC50 (hERG K+ channel) was over 20 µM, the IC20 (hERG K+ channel) was over 10 µM and the IC50 (human TLR8) was under 0.0032 µM.
Molecule `C[C@@H]1CN(c2ccc(C#N)c3ncccc23)C[C@@H]2c3ccc(N4C[C@H]5NCCO[C@@H]5C4)cc3CN12` [Example 44, 5-[(4R,10bS)-4-methyl-8-[(4aR,7aR)-3,4,4a,5,7,7a-hexahydro-2H-pyrrolo[3,4-b][1,4]oxazin-6-yl]-3,4,6,10b-tetrahydro-1H-pyrazino[2,1-a]isoindol-2-yl]quinoline-8-carbonitrile] has an IC50 (hERG K+ channel) of over 20 µM, an IC20 (hERG K+ channel) of 6.4 µM and an IC50 (human TLR8) of 0.0004 µM.
